From ChEMBL document CHEMBL4507289, “Data for DCP probe GSM1” (2021)

Columns and labels:
[1] = tested on: Tyrosine-protein kinase ABL1 (Homo sapiens), P00519 [F317I]; settings: Compound concentration 1000.0 nM
[2] = target: Atypical kinase COQ8A, mitochondrial (Homo sapiens) (UniProt Q8NI60); settings: Compound concentration 1000.0 nM
[3] = target: 5'-AMP-activated protein kinase catalytic subunit alpha-2 (Homo sapiens) (UniProt P54646); settings: Compound concentration 1000.0 nM
[4] = target: NUAK family SNF1-like kinase 1 (Homo sapiens) (UniProt O60285); settings: Compound concentration 1000.0 nM
[5] = tested on: Serine/threonine-protein kinase B-raf (Homo sapiens), P15056 [V600E]; settings: Compound concentration 1000.0 nM
[6] = target: Cyclin-dependent kinase 2 (Homo sapiens) (UniProt P24941); settings: Compound concentration 1000.0 nM
[7] = target: Cyclin-dependent kinase-like 1 (Homo sapiens) (UniProt Q00532); settings: Compound concentration 1000.0 nM
[8] = target: Cyclin-dependent kinase-like 2 (Homo sapiens) (UniProt Q92772); settings: Compound concentration 1000.0 nM
[9] = target: Dual specificity protein kinase CLK2 (Homo sapiens) (UniProt P49760); settings: Compound concentration 1000.0 nM
[10] = target: Casein kinase II subunit alpha' (Homo sapiens) (UniProt P19784); settings: Compound concentration 1000.0 nM
Sequence of Casein kinase II subunit alpha' (Homo sapiens) (P19784 whole entry, looked up): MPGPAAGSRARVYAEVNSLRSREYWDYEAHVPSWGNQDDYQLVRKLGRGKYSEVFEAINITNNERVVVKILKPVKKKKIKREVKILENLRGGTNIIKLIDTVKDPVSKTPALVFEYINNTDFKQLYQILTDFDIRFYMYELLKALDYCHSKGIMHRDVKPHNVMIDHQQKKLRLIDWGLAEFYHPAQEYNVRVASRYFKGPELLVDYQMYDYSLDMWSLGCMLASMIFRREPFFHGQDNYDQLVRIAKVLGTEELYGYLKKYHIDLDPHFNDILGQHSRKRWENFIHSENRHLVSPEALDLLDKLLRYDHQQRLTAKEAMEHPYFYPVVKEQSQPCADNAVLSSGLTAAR

[11] = target: Megakaryocyte-associated tyrosine-protein kinase (Homo sapiens) (UniProt P42679); settings: Compound concentration 1000.0 nM
[12] = tested on: Epidermal growth factor receptor (Homo sapiens), P00533 [UNDEFINED MUTATION]; settings: Compound concentration 1000.0 nM
[13] = target: Ephrin type-A receptor 1 (Homo sapiens) (UniProt P21709); settings: Compound concentration 1000.0 nM
Sequence of Ephrin type-A receptor 1 (Homo sapiens) (P21709 whole entry): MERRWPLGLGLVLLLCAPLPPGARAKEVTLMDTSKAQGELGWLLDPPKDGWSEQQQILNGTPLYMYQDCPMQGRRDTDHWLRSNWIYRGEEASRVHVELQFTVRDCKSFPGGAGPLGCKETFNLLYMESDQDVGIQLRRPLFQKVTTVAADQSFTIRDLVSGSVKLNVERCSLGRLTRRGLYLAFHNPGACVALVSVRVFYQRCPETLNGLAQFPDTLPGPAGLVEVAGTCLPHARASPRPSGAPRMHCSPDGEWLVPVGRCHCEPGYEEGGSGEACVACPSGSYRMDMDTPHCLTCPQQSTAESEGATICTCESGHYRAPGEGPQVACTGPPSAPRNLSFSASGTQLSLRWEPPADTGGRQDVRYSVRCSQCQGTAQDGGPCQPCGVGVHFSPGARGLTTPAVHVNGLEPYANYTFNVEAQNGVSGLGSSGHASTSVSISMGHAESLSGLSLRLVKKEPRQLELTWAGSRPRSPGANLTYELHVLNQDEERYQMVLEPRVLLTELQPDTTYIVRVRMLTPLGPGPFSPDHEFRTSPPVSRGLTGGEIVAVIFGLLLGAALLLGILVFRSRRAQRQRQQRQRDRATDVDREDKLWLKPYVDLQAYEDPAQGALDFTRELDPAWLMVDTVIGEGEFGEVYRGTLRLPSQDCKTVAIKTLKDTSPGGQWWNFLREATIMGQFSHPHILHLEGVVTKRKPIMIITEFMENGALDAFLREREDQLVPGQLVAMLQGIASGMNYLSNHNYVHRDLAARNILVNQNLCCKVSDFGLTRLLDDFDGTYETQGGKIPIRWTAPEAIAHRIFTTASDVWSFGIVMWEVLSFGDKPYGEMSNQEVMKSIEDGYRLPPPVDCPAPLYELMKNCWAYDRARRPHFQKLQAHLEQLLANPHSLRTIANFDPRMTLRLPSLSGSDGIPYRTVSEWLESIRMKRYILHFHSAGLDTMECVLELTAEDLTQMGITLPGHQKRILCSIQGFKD

[14] = target: Mitogen-activated protein kinase 6 (Homo sapiens) (UniProt Q16659); settings: Compound concentration 1000.0 nM
Sequence of Mitogen-activated protein kinase 6 (Homo sapiens) (Q16659 whole entry): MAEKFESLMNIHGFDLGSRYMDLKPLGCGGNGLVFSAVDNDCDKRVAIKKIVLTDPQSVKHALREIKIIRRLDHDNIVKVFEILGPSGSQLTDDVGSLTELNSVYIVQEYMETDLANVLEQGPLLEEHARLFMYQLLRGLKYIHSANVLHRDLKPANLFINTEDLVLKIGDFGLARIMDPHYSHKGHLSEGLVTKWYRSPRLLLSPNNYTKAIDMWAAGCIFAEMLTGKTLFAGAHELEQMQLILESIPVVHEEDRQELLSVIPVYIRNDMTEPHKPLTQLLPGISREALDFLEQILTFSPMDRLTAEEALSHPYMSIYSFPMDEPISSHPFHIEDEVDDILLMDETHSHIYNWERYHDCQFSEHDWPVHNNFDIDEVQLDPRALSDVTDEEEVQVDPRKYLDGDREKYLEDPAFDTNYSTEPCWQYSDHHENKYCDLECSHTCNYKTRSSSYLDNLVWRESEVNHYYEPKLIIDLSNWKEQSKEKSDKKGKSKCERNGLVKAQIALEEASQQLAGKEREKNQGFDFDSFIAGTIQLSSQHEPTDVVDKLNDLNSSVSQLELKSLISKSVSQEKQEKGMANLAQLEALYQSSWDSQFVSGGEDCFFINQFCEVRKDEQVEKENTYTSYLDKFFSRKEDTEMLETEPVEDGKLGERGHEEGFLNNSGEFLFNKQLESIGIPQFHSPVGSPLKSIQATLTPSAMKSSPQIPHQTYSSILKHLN

[15] = tested on: Receptor-type tyrosine-protein kinase FLT3 (Homo sapiens), P36888 [R834Q]; settings: Compound concentration 1000.0 nM
[16] = target: Tyrosine-protein kinase FRK (Homo sapiens) (UniProt P42685); settings: Compound concentration 1000.0 nM
Sequence of Tyrosine-protein kinase FRK (Homo sapiens) (P42685 whole entry): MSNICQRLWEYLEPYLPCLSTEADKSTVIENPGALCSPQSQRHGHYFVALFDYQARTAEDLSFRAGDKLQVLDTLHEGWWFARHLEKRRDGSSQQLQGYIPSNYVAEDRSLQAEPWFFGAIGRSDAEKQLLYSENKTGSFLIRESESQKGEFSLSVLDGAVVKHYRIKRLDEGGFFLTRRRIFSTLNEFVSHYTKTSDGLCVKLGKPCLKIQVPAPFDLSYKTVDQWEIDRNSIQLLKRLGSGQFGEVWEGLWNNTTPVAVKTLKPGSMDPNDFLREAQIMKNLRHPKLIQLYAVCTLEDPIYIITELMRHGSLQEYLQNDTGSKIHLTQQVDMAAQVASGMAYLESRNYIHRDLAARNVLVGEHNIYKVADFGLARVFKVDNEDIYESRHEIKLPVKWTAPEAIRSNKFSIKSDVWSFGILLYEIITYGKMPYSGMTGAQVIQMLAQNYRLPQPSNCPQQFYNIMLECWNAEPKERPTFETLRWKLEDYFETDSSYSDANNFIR

[17] = target: Interleukin-1 receptor-associated kinase 1 (Homo sapiens) (UniProt P51617); settings: Compound concentration 1000.0 nM
Sequence of Interleukin-1 receptor-associated kinase 1 (Homo sapiens) (P51617 whole entry, looked up): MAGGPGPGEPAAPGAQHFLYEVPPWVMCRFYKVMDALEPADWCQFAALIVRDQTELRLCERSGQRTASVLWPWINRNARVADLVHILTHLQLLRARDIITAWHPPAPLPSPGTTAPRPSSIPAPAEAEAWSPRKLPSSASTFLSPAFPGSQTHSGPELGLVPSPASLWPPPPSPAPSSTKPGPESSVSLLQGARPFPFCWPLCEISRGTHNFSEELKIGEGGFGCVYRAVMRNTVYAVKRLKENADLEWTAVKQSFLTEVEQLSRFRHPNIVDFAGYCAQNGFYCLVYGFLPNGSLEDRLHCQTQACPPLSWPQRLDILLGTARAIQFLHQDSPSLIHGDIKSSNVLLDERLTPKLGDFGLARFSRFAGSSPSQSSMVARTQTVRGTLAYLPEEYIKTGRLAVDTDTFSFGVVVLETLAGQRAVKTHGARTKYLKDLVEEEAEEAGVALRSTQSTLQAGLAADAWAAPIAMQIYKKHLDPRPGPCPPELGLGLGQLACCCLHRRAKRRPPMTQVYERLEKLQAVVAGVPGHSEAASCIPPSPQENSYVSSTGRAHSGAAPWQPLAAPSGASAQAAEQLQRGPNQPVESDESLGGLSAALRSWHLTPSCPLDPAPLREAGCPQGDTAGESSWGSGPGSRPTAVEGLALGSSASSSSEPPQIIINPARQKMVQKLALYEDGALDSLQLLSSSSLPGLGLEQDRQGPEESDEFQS

[18] = target: Mitogen-activated protein kinase 10 (Homo sapiens) (UniProt P53779); settings: Compound concentration 1000.0 nM
[19] = tested on: Mast/stem cell growth factor receptor Kit (Homo sapiens), P10721 [V559D,V654A]; settings: Compound concentration 1000.0 nM
[20] = target: Serine/threonine-protein kinase STK11 (Homo sapiens) (UniProt Q15831); settings: Compound concentration 1000.0 nM
[21] = target: Mitogen-activated protein kinase kinase kinase 1 (Homo sapiens) (UniProt Q13233); settings: Compound concentration 1000.0 nM
[22] = target: Mitogen-activated protein kinase kinase kinase kinase 5 (Homo sapiens) (UniProt Q9Y4K4); settings: Compound concentration 1000.0 nM
[23] = target: Dual specificity mitogen-activated protein kinase kinase 6 (Homo sapiens) (UniProt P52564); settings: Compound concentration 1000.0 nM
[24] = target: Mitogen-activated protein kinase kinase kinase 11 (Homo sapiens) (UniProt Q16584); settings: Compound concentration 1000.0 nM
[25] = target: Macrophage-stimulating protein receptor (Homo sapiens) (UniProt Q04912); settings: Compound concentration 1000.0 nM
[26] = target: Serine/threonine-protein kinase 3 (Homo sapiens) (UniProt Q13188); settings: Compound concentration 1000.0 nM
[27] = target: Serine/threonine-protein kinase 26 (Homo sapiens) (UniProt Q9P289); settings: Compound concentration 1000.0 nM
[28] = target: Serine/threonine-protein kinase Nek7 (Homo sapiens) (UniProt Q8TDX7); settings: Compound concentration 1000.0 nM
Sequence of Serine/threonine-protein kinase Nek7 (Homo sapiens) (Q8TDX7 whole entry, looked up): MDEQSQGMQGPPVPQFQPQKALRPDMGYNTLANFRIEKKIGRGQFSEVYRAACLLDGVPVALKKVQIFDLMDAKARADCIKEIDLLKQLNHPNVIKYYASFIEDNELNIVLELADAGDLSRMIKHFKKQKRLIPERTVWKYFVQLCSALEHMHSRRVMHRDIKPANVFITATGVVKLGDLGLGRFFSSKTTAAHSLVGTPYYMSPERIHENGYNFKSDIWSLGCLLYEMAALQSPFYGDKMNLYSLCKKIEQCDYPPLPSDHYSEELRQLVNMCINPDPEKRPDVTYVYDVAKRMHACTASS

[29] = target: Mitogen-activated protein kinase 14 (Homo sapiens) (UniProt Q16539); settings: Compound concentration 1000.0 nM
[30] = tested on: Phosphatidylinositol 4,5-bisphosphate 3-kinase catalytic subunit alpha isoform (Homo sapiens), P42336 [M1043I]; settings: Compound concentration 1000.0 nM
[31] = target: Phosphatidylinositol 4-kinase beta (Homo sapiens) (UniProt Q9UBF8); settings: Compound concentration 1000.0 nM
[32] = target: Serine/threonine-protein kinase pim-1 (Homo sapiens) (UniProt P11309); settings: Compound concentration 1000.0 nM
[33] = target: cAMP-dependent protein kinase catalytic subunit alpha (Homo sapiens) (UniProt P17612); settings: Compound concentration 1000.0 nM
[34] = target: cGMP-dependent protein kinase 1 (Homo sapiens) (UniProt Q13976); settings: Compound concentration 1000.0 nM
[35] = target: Ribosomal protein S6 kinase alpha-3 (Homo sapiens) (UniProt P51812); settings: Compound concentration 1000.0 nM
[36] = target: Ribosomal protein S6 kinase beta-1 (Homo sapiens) (UniProt P23443); settings: Compound concentration 1000.0 nM
[37] = target: SRSF protein kinase 1 (Homo sapiens) (UniProt Q96SB4); settings: Compound concentration 1000.0 nM
[38] = target: Serine/threonine-protein kinase 16 (Homo sapiens) (UniProt O75716); settings: Compound concentration 1000.0 nM
[39] = target: Serine/threonine-protein kinase TAO2 (Homo sapiens) (UniProt Q9UL54); settings: Compound concentration 1000.0 nM
[40] = target: Angiopoietin-1 receptor (Homo sapiens) (UniProt Q02763); settings: Compound concentration 1000.0 nM
[41] = target: 5-hydroxytryptamine receptor 1B (Homo sapiens) (UniProt P28222); settings: Compound concentration 10.0 uM
[42] = target: 5-hydroxytryptamine receptor 3A (Homo sapiens) (UniProt P46098); settings: Compound concentration 10.0 uM
[43] = target: 5-hydroxytryptamine receptor 5A (Homo sapiens) (UniProt P47898); settings: Compound concentration 10.0 uM
Sequence of 5-hydroxytryptamine receptor 5A (Homo sapiens) (P47898 whole entry): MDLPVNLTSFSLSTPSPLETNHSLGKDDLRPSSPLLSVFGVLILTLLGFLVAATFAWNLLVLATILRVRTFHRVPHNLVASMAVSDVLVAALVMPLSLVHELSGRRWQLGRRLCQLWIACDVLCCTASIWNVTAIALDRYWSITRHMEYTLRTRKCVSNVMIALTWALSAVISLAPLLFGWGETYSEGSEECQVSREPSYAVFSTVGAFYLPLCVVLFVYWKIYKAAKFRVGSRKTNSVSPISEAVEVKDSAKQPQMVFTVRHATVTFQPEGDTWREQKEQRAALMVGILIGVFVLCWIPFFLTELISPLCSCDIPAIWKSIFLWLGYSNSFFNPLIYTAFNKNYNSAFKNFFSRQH

[44] = target: Alpha-2B adrenergic receptor (Homo sapiens) (UniProt P18089); settings: Compound concentration 10.0 uM
Sequence of Alpha-2B adrenergic receptor (Homo sapiens) (P18089 whole entry): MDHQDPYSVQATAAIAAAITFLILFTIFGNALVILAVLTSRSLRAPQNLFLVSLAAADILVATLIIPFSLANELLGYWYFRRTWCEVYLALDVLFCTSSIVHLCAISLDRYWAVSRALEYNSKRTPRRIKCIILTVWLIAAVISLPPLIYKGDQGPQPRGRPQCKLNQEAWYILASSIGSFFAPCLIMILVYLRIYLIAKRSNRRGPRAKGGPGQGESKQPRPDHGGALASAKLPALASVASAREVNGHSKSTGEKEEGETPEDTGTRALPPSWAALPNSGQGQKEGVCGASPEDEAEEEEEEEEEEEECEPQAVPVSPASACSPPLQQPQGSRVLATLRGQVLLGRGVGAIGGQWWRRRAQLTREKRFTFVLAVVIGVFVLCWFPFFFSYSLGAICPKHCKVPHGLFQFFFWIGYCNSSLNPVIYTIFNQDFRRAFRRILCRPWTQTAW

[45] = target: Beta-1 adrenergic receptor (Homo sapiens) (UniProt P08588); settings: Compound concentration 10.0 uM

Sequence of Atypical kinase COQ8A, mitochondrial (Homo sapiens) (Q8NI60 163-647 limits assumed): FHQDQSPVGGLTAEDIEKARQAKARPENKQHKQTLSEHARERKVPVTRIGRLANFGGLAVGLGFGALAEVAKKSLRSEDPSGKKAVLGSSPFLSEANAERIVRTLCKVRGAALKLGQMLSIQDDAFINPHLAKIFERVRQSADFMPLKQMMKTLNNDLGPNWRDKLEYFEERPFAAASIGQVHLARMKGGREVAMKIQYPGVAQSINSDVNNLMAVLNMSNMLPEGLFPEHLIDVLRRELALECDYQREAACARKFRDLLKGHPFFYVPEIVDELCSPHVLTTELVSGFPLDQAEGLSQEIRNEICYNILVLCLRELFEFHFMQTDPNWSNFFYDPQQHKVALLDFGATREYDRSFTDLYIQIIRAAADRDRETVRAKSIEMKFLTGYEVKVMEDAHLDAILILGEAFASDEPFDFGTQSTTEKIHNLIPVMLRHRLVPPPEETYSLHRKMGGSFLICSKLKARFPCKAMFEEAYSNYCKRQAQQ

In the case of `COc1cc(-c2cn([C@H]3CCc4c(F)cccc4N(CC(F)(F)F)C3=O)nn2)ccc1-n1cnc(C)c1`, the residual activity [1] is reported as 79%, the residual activity [2] is reported as 100% and the residual activity [3] is reported as 100%. For the same compound, the residual activity [4] was 100%, the residual activity [5] was 100% and the residual activity [6] was 100%. The residual activity [7] was 100%, the residual activity [8] was 67% and the residual activity [9] was 100%. The residual activity [10] was 100%, the residual activity [11] was 100% and the residual activity [12] was 0%. It also gave a residual activity [13] of 100%, a residual activity [14] of 100% and a residual activity [15] of 100%. For the same compound, the residual activity [16] was 100%, the residual activity [17] was 100% and the residual activity [18] was 72%. The residual activity [19] was 97%, the residual activity [20] was 100% and the residual activity [21] was 100%. The residual activity [22] was 5.8%, the residual activity [23] was 100% and the residual activity [24] was 100%. The residual activity [25] was 100%, the residual activity [26] was 100% and the residual activity [27] was 90%. The residual activity [28] was 100%, the residual activity [29] was 100% and the residual activity [30] was 100%. For the same compound, the residual activity [31] was 79%, the residual activity [32] was 96% and the residual activity [33] was 100%. For the same compound, the residual activity [34] was 100%, the residual activity [35] was 100% and the residual activity [36] was 100%. It also gave a residual activity [37] of 100%, a residual activity [38] of 100% and a residual activity [39] of 100%. The residual activity [40] was 100%, the inhibition [41] was 35% and the inhibition [42] was -8%. The inhibition [43] was 7.61%, the inhibition [44] was 31.1% and the inhibition [45] was 2.45%.

With `COc1cc(-c2cn([C@H]3CCc4ccccc4N(CC(F)(F)F)C3=O)nn2)ccc1-n1ccc(C)n1` the residual activity [1] was 65%, the residual activity [2] was 100% and the residual activity [3] was 71%. For the same compound, the residual activity [4] was 92%, the residual activity [5] was 97% and the residual activity [6] was 100%. The residual activity [7] was 97%, the residual activity [8] was 91% and the residual activity [9] was 100%. For the same compound, the residual activity [10] was 84%, the residual activity [11] was 80% and the residual activity [12] was 100%. For the same compound, the residual activity [13] was 89%, the residual activity [14] was 100% and the residual activity [15] was 100%. It also gave a residual activity [16] of 100%, a residual activity [17] of 100% and a residual activity [18] of 61%. It also gave a residual activity [19] of 100%, a residual activity [20] of 100% and a residual activity [21] of 72%. For the same compound, the residual activity [22] was 100%, the residual activity [23] was 100% and the residual activity [24] was 100%. For the same compound, the residual activity [25] was 96%, the residual activity [26] was 84% and the residual activity [27] was 83%. For the same compound, the residual activity [28] was 100%, the residual activity [29] was 94% and the residual activity [30] was 100%. For the same compound, the residual activity [31] was 87%, the residual activity [32] was 100% and the residual activity [33] was 100%. The residual activity [34] was 100%, the residual activity [35] was 97% and the residual activity [36] was 100%. The residual activity [37] was 100%, the residual activity [38] was 100% and the residual activity [39] was 100%. The residual activity [40] was 81%, the inhibition [41] was 30.8% and the inhibition [42] was -9.73%. It also gave an inhibition [43] of 9.69%, an inhibition [44] of 7.14% and an inhibition [45] of 3.7%.
